The nature of data set [1]: in vitro. Particulars: mouse, liver microsomes.
Description: Metabolic stability in mouse liver microsome assessed as clearance preincubated with compound for 10 mins followed by NADPH addition and measured upto 60 mins by LC-MS/MS analysis
Data set [2] in a line: in vitro. As to conditions: mouse, liver microsomes. The source holds these as a separate data set. In general terms: Liver microsomes are vesicles of endoplasmic reticulum, rich in cytochrome P450 enzymes.
Description: Metabolic stability in mouse liver microsome assessed as half life preincubated with compound for 10 mins followed by NADPH addition and measured upto 60 mins by LC-MS/MS analysis
Data set [3] concerns CT26. Kind of data set: Antitumor activity against mouse CT26 cells implanted in BALB/c mouse assessed as increase in CD103+ expression level at 30 mg/kg, ip measured for 7 days by flow cytometry analysis (reference value: 4.95%). The format is functional. As to conditions: time 7 day. A general note: A flow cytometer gives signals particle by particle.
Data set [4] has as its system CT26. Put plainly: Antitumor activity against mouse CT26 cells implanted in BALB/c mouse assessed as tumor growth inhibition at 30 mg/kg, ip measured for 7 days. As to conditions: CT26, 168 h, read-out: TGI.
For data set [5], the system named is CT26. Put plainly: Antitumor activity against mouse CT26 cells implanted in BALB/c mouse assessed as tumor growth inhibition at 30 mg/kg, ip measured for 14 days. The format is functional. As to conditions: CT26, 336 h, time 14 day, read-out: TGI.
The nature of the next data set: cells. As to conditions: Homo sapiens, HCT-116, 24 h.
A short description of data set [6]: Antitumor activity against mouse PBMC cells implanted in BALB/c mouse assessed as increase in CD103 + XCR1 cDC1 expression at 30 mg/kg, ip measured for 7 days by qPCR analysis. The format is functional. As to conditions: time 7 day.
Data set [7] is described as follows: Tmax in ICR mouse at 1 mg/kg, iv measured upto 24 hrs by HPLC-MS/MS analysis. The data set is classed as ADME, organism-based. As to conditions: in vivo.
Data set [8] in a line: AUC (0 to t) in ICR mouse at 1 mg/kg, iv measured upto 24 hrs by HPLC-MS/MS analysis. The format is ADME, organism-based. As to conditions: in vivo.
Data set [9] in a line: Cmax in ICR mouse at 1 mg/kg, iv measured upto 24 hrs by HPLC-MS/MS analysis. The data set is classed as ADME, organism-based. As to conditions: in vivo.
Data set [10] in a line: Clearance in ICR mouse at 1 mg/kg, iv measured upto 24 hrs by HPLC-MS/MS analysis. The data set is classed as ADME, organism-based. As to conditions: in vivo.
A short description of data set [11]: Half life in ICR mouse at 1 mg/kg, iv measured upto 24 hrs by HPLC-MS/MS analysis. The data set is classed as ADME, organism-based. As to conditions: in vivo.
A short description of data set [12]: Toxicity in BALB/c mouse implanted with mouse CT26 cells assessed as body weight loss at 30 mg/kg, ip measured for 14 days. The format is organism-based. Particulars: in vivo, 336 h, time 14 day.
In data set [13] the target is T1, beta-catenin-B-cell lymphoma 9 protein complex (Homo sapiens, UniProt P35222).
T1 sequence (P35222 whole entry): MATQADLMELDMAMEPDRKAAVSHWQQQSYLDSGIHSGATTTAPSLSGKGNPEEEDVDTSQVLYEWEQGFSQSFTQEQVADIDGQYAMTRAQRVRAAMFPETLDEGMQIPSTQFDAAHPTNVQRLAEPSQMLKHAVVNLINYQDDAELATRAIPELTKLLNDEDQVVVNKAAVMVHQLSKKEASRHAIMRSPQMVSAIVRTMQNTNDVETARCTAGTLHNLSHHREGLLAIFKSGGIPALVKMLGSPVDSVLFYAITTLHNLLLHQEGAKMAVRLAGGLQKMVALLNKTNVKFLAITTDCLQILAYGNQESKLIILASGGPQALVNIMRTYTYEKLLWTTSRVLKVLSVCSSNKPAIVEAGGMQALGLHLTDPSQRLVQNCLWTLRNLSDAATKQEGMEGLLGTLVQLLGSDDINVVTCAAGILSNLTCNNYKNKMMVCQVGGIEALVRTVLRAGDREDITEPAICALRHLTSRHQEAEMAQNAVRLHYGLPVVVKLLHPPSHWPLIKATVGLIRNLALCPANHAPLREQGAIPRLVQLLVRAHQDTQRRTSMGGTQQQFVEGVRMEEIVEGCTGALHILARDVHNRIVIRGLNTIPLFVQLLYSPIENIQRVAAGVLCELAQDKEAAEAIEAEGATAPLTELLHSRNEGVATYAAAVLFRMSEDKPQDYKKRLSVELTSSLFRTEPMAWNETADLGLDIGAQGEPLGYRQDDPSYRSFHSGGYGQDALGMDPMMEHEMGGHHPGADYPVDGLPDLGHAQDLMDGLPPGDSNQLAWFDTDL
T1 sequence (O00512 whole entry): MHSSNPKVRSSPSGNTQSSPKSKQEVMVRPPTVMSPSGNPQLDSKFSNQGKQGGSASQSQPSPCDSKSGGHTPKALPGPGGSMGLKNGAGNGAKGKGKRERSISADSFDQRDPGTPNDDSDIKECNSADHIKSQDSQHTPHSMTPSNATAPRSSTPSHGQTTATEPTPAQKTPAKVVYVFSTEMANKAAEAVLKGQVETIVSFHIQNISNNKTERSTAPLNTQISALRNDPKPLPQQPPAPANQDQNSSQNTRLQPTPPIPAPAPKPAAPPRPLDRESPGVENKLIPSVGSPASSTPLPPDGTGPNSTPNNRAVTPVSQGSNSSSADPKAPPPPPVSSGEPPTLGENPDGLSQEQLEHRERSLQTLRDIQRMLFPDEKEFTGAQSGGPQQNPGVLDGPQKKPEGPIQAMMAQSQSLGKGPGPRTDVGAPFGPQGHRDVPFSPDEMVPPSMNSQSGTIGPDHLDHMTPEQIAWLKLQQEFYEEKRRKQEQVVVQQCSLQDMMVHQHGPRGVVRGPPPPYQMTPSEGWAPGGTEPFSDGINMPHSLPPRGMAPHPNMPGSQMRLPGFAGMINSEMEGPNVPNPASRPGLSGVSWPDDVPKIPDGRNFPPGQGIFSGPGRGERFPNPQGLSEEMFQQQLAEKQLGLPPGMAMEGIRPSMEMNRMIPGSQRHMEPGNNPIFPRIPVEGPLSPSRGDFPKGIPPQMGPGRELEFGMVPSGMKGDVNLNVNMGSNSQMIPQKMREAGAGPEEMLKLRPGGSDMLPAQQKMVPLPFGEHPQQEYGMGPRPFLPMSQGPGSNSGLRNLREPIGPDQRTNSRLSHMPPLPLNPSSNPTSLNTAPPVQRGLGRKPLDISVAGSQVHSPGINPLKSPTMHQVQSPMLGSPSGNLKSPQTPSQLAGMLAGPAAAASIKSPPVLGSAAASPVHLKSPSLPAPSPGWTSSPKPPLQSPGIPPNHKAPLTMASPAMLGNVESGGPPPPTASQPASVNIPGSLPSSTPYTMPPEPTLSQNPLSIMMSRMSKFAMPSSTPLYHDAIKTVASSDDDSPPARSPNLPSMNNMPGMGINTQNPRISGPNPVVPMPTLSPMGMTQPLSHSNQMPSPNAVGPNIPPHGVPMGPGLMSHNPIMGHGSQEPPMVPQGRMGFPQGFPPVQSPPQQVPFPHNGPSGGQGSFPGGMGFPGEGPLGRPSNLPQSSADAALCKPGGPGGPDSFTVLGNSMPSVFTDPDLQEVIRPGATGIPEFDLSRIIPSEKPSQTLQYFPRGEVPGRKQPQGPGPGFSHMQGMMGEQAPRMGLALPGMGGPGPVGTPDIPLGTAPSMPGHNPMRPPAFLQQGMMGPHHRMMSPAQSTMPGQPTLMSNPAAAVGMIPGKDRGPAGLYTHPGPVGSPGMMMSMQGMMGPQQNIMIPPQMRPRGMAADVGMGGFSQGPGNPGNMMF
Kind of data set: Inhibition of beta-catenin (unknown origin)/BCL9 (unknown origin) protein-protein interaction. The format is protein-complex assay.

The target of data set [14] is T1, beta-catenin-B-cell lymphoma 9 protein complex. Kind of data set: Inhibition of full length his-tagged human beta-catenin (1 to 781 residues) expressed in Escherichia coli DE3/N-terminal FAM-tagged human BCL9 (350 to 375 residues) protein-protein interaction incubated for 2 hrs by fluorescence polarization assay. (In fluorescence polarisation assays a small probe gives low polarisation when free and higher when bound to something large.)

The next data set addresses T2, Catenin beta-1 (Homo sapiens, UniProt P35222).
T2 sequence (P35222 whole entry): T1 sequence (P35222 whole entry)
Put plainly: Binding affinity to full length his-tagged human beta-catenin (1 to 781 residues) expressed in Escherichia coli DE3 assessed as dissociation constant by SPR analysis.

A value given as a limit tells only on which side of the number the result lay.

Description for cells: Inhibition of Wnt/beta-catenin signaling pathway in human HCT-116 cells assessed as reduction in Axin2 expression incubated for 24 hrs by qPCR analysis

As a reminder, the microsomal CLint is the capacity of the preparation to metabolise the compound, expressed as a volume cleared per time. For orientation: half-life means the time needed for the level to fall by half in the phase considered. Low readings indicate fast loss, high ones slow loss. What is called IC50 is the concentration at which inhibition is half-maximal. Read a high IC50 as lower potency. Molecule `CC(C)(Oc1cccc(N2CCC[C@@H](C(=O)N(Cc3ccc(-c4cn[nH]c4)cc3)C3CC3)C2)c1)C(=O)N1CCNCC1` came in with an intrinsic metabolic clearance (microsomal CLint) at 1 h in “in vitro [1]” of 888 µL/min/mg. The molecule further had a half-life at 1 h in “in vitro [2]” of 2.37 min. The Activity stood at 14.9% in the data set on CT26 [3] and 5.17% in data set [6]. The inhibition in vivo at 30 mg/kg with CT26 [4] came out at 44.1%; in the data set with CT26 [5], 42.4%. This molecule registered an IC50 in “cells” of 3.34 µM.

Consider `O=C1[C@H](Cc2ccc(O)cc2)N2C(=O)CCN(C(=O)NCc3ccccc3)[C@H]2CN1Cc1cccc2ccccc12`, for which, in the data set “cells”, the IC50 was determined as 3.34 µM.

In general, Tmax refers to the time from dosing to the highest level. For orientation: AUC(0-t) means exposure summed from dosing to a finite time, without extrapolation to infinity. A high value points to high exposure. The Cmax is the peak of the concentration-time curve. A word on the clearance: it is the volume of plasma or blood freed of the substance per unit of time. Higher therefore signals efficient removal. As to `CC(C)(Oc1cccc(N2CCC[C@@H](NC(=O)N(Cc3ccc(-c4cn[nH]c4)cc3)C3CC3)C2)c1)C(=O)NCCCN`, in data set [7], the Tmax is 4.8 min. For the same molecule, the microsomal CLint at 1 h in the data set “in vitro [1]” was determined as 67 µL/min/mg. For the same molecule, in data set [8], the AUC(0-t) at 24 h stood at 430 ng·h/mL. For the same molecule, in the data set “in vitro [2]”, the half-life at 1 h stood at 31.5 min. Also, the Cmax in [9] was 910 ng/mL. Besides, in data set [10], the clearance amounted to 40 mL/min/kg. This molecule also gave a half-life in data set [11] of 40.2 min. Moreover, in [12], the Activity result is on record as “Non-Toxic”. The inhibition in vivo at 30 mg/kg with CT26 [5] amounted to 56.4%. In addition, in “cells”, it took 2.88 µM to reach half-maximal inhibition (IC50).

For the molecule `CC(C)(Oc1cccc(N2CCC[C@@H](NC(=O)N(Cc3ccc(-c4cn[nH]c4)cc3)C3CC3)C2)c1)C(=O)N1CCNCC1`, it took 4.67 µM to reach half-maximal inhibition in the data set “cells” (IC50).

In general, Ki refers to the dissociation constant of the complex between target and ligand, obtained from inhibition or displacement. The low end stands for tighter binding, the high end for weaker binding. In the case of `CCCC(=O)Oc1ccc([N+](=O)[O-])cc1`, affinity in data set [13] was put at a Ki of 2.1 µM.

`CC(C)(Oc1cccc(N2CCC[C@H](NC(=O)N(Cc3ccc(-c4cn[nH]c4)cc3)C3CC3)C2)c1)C(=O)N1CCNCC1` registered an IC50 in “cells” of 4.35 µM.

As usually defined, the Kd is the equilibrium constant for the complex coming apart. For `CC(C)(Oc1cccc(N2CCC[C@H](NC(=O)N(Cc3ccc(-c4cn[nH]c4)cc3)C3CC3)C2)c1)C(=O)NCC(=O)N1CCCC1CCN` (stereo partly specified), the IC50 worked out at 2.06 µM in [14] and 5.3 µM in the data set “cells”. In addition, on Catenin beta-1, the Kd was found to be 0.64 µM.

Consider `CC(C)(Oc1cccc(N2CCC[C@@H](NC(=O)N(Cc3ccc(-c4cn[nH]c4)cc3)C3CC3)C2)c1)C(=O)NCC(=O)N1CCCC1CCN` (stereo partly specified), for which the IC50 in data set [14] is 3.92 µM; in “cells”, 4.45 µM. Moreover, the Kd on Catenin beta-1 was 0.082 µM.

In “cells”, `CC(C)(Oc1cccc(N2CCC[C@H](NC(=O)N(Cc3ccc(-c4cn[nH]c4)cc3)C3CC3)C2)c1)C(=O)N1CCOCC1` displayed an IC50 of 8.24 µM.

As to `CC(C)(Oc1cccc(N2CCC[C@@H](NC(=O)N(Cc3ccc(-c4cn[nH]c4)cc3)C3CC3)C2)c1)C(=O)N1CCOCC1`, in “cells”, the IC50 worked out at 5.41 µM.

Take `CC(C)(Oc1cccc(N2CCC[C@H](NC(=O)N(Cc3ccc(-c4cn[nH]c4)cc3)C3CC3)C2)c1)C(=O)NCCN`: the IC50 came out at 1.83 µM in data set [14] and 7.5 µM in the data set “cells”. Besides, the Kd at Catenin beta-1 is 0.25 µM.

Molecule `CC(C)(Oc1cccc(N2CCC[C@H](NC(=O)N(Cc3ccc(-c4cn[nH]c4)cc3)C3CC3)C2)c1)C(=O)NCCCN` yielded an IC50 in “cells” greater than 10 µM.

`CC(C)(Oc1cccc(N2CCC[C@@H](NC(=O)N(Cc3ccc(-c4cn[nH]c4)cc3)C3CC3)C2)c1)C(=O)NCCN`: the IC50 was greater than 20 µM in [14] and 2.54 µM in the data set “cells”. At Catenin beta-1, the Kd was 0.25 µM.

Values taken from ChEMBL document CHEMBL5550183, “Discovery of Novel 1-Phenylpiperidine Urea-Containing Derivatives Inhibiting β-Catenin/BCL9 Interaction and Exerting Antitumor Efficacy through the Activation of Antigen Presentation of cDC1 Cells” (J Med Chem, 2024).
